In ChEMBL document CHEMBL4417631, “Oral peptide inhibitors of interleukin-23 receptor and their use to treat inflammatory bowel diseases” (2017):
Activity calls are given as the source filed them. The rule behind the calls is not given here.

What was measured:
PBMC = assay: Inhibition of IL12-stimulated IFNgamma production in PHA-activated human PBMC at 0.0001 to 100 uM by ELISA; assay type: functional, cell-based
Rattus norvegicus [1] = assay: Anti-colitis activity in Sprague-Dawley rat model of DSS-induced colitis assessed as improvement in stool consistency scores level at 30 mg/kg, ip dosed 3 times per day; assay type: functional, organism-based
Rattus norvegicus [2] = assay: Anti-colitis activity in Sprague-Dawley rat model of DSS-induced colitis assessed as reduction in colon macroscopic scores at 30 mg/kg, ip dosed 3 times per day; assay type: functional, organism-based
Rattus norvegicus [3] = assay: Anti-colitis activity in Sprague-Dawley rat model of DSS-induced colitis assessed as improvement in hematocrit scores level at 30 mg/kg, po dosed 3 times per day; assay type: functional, organism-based
Rattus norvegicus [4] = assay: Anti-colitis activity in Sprague-Dawley rat model of DSS-induced colitis assessed as colon weight/colon length ratio at 30 mg/kg, po dosed 3 times per day (124.36 +/- 17.11 g/cm); assay type: functional
Rattus norvegicus [5] = assay: Anti-colitis activity in Sprague-Dawley rat model of DSS-induced colitis assessed as change in body weight at 30 mg/kg, po dosed 3 times per day (-6.39 +/- 1.11%); assay type: functional
Rattus norvegicus [6] = assay: Anti-colitis activity in Sprague-Dawley rat model of DSS-induced colitis assessed as reduction in disease activity index at 30 mg/kg, po dosed 3 times per day; assay type: functional
Rattus norvegicus [7] = assay: Anti-colitis activity in Sprague-Dawley rat model of DSS-induced colitis assessed as reduction in colon macroscopic scores at 30 mg/kg, po dosed 3 times per day; assay type: functional, organism-based
Rattus norvegicus [8] = assay: Anti-colitis activity in Sprague-Dawley rat model of DSS-induced colitis assessed as improvement in hematocrit scores level at 30 mg/kg, ip dosed 3 times per day; assay type: functional, organism-based
Rattus norvegicus [9] = assay: Anti-colitis activity in Sprague-Dawley rat model of DSS-induced colitis assessed as improvement in stool consistency scores level at 30 mg/kg, po dosed 3 times per day; assay type: functional, organism-based
[10] = Inhibition of interleukin-23 binding to cynomolgus monkey interleukin-23 receptor incubated for 2 hrs by competitive binding ELISA; set-up: species or system Macaca fascicularis
Interleukin-23 receptor [11] = target: T1, Interleukin-23 receptor (Homo sapiens, UniProt Q5VWK5); assay: Inhibition of interleukin-23 binding to human interleukin-23 receptor incubated for 2 hrs by competitive binding ELISA
T1 sequence (Q5VWK5 whole entry): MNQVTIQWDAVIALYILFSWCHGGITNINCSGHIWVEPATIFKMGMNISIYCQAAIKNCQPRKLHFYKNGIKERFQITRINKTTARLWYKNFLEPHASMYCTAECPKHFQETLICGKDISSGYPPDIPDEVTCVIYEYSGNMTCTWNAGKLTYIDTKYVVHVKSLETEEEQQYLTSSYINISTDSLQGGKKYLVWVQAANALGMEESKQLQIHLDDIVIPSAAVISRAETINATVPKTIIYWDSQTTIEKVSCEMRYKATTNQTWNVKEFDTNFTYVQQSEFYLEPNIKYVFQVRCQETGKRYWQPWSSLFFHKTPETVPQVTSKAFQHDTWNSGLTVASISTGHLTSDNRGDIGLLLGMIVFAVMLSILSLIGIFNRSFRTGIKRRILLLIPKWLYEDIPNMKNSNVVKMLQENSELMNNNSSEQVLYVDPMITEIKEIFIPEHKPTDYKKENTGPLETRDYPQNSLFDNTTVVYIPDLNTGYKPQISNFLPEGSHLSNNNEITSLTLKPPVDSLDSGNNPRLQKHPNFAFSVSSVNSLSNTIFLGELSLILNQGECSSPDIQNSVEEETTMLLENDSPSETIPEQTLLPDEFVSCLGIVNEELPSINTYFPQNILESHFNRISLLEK

Interleukin-23 receptor [12] = target: T2, Interleukin-23 receptor (Mus musculus, UniProt Q8K4B4); assay: Inhibition of interleukin-23 binding to mouse interleukin-23 receptor incubated for 2 hrs by competitive binding ELISA
T2 sequence (Q8K4B4 whole entry): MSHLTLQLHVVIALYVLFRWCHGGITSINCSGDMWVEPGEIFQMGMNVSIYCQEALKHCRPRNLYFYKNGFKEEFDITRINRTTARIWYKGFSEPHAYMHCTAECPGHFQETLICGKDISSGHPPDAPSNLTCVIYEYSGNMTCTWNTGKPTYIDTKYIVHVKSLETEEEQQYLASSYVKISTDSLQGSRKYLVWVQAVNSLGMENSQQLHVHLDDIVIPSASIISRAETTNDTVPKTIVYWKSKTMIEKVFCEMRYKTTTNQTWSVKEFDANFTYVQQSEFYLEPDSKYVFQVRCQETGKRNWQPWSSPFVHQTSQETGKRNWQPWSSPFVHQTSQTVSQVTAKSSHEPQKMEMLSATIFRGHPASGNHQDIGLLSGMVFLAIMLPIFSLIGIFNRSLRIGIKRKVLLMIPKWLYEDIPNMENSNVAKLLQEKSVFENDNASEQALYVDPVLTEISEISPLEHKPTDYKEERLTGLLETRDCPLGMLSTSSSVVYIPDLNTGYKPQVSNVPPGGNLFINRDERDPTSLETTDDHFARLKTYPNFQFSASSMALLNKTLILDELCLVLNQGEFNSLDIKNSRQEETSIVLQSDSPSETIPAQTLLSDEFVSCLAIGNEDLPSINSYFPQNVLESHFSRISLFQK

[13] = Inhibition of interleukin-23 binding to rat interleukin-23 receptor incubated for 2 hrs by competitive binding ELISA
Interleukin-23 receptor [14] = target: T1, Interleukin-23 receptor; assay: Inhibition of interleukin-23 receptor in human DB cells assessed as reduction in IL-23-stimulated STAT3 phosphorylation incubated for 30 mins by HTRF assay; assay type: cell-based

Row | IC50 [10] | IC50 (Interleukin-23 receptor [11]) | IC50 (Interleukin-23 receptor [12]) | IC50 [13] | IC50 (Interleukin-23 receptor [14]) | Compound | inhibition (PBMC) | Activity (Rattus norvegicus [1]) | Activity (Rattus norvegicus [2]) | Activity (Rattus norvegicus [3]) | Ratio (Rattus norvegicus [4]) | Activity (Rattus norvegicus [5]) | Activity_index (Rattus norvegicus [6]) | Activity (Rattus norvegicus [7]) | Activity (Rattus norvegicus [8]) | Activity (Rattus norvegicus [9])
1 | – | – | – | – | – | COc1ccc(C[C@H](NC(=O)[C@H]2NC(=O)[C@H](CCC(N)=O)NC(=O)[C@H](Cc3c[nH]c4ccccc34)NC(=O)[C@H]([C@@H](C)O)NC(=O)[C@H](CCC(N)=O)NC(=O)[C@@H](NC(C)=O)C(C)(C)SSC2(C)C)C(=O)N[C@@H](Cc2ccc3ccccc3c2)C(=O)N[C@@](C)(CCCCN)C(=O)N[C@@H](CCC(=O)O)C(=O)N[C@@H](CC(N)=O)C(=O)NCC(N)=O)cc1 | inactive | Active | Active | Active | 97.36 g/cm | 0.13% | 0.61 | Active | Active | Active
2 | 1000 to 10000 nM | 100 to 1000 nM | > 25000 nM | 251 to 1000 nM | 100 to 1000 nM | CC(C)[C@H](NC(=O)[C@H](Cc1c[nH]c2ccccc12)NC(=O)[C@H](CC(=O)O)NC(=O)[C@H](C)NC(=O)[C@@H](N)CS)C(=O)N[C@@H](CS)C(=O)N[C@@H](Cc1ccc(O)cc1)C(=O)N[C@@H](Cc1c[nH]c2ccccc12)C(=O)N[C@@H](Cc1cnc[nH]1)C(=O)N[C@H](C(=O)N[C@@H](Cc1ccccc1)C(=O)NCC(N)=O)[C@@H](C)O | – | – | – | – | – | – | – | – | – | –
3 | 1000 to 10000 nM | 25 to 10000 nM | > 25000 nM | 1000 to 10000 nM | 1000 to 10000 nM | CC(=O)N[C@@H](CS)C(=O)N[C@@H](CCC(N)=O)C(=O)N[C@H](C(=O)N[C@@H](Cc1c[nH]c2ccccc12)C(=O)N[C@@H](CCC(N)=O)C(=O)N[C@@H](CS)C(=O)N[C@@H](Cc1ccc(O)cc1)C(=O)N[C@@H](Cc1c[nH]c2ccccc12)C(=O)N[C@@H](CCCNC(N)=O)C(=O)N[C@@H](CN)C(=O)N[C@@H](Cc1ccccc1)C(=O)NCC(=O)NCCOCC(=O)N[C@H](CCCCN)C(N)=O)[C@@H](C)O | – | – | – | – | – | – | – | – | – | –
